The text below walks through data of patent publication US20240262806A1, “INHIBITORS OF NLRP3” (PTC THERAPEUTICS, INC., priority 2021, published 2024).

Some results are limits rather than exact numbers.

Broadly, the IC50 is the concentration that inhibits the measured activity by half.

This experiment relates to NLRP3 inflammasome. Put plainly: IL-1β Secretion Assay (NLRP3-dependent IL-1β secretion in PMA-differentiated THP-1 cells, nigericin activation, HTRF). In kind it is cell-based. The conditions noted are these: Homo sapiens, THP-1, THP-1 cells, 100 ng/mL PMA 24 h, compound 20 h, 2.5 μM Nigericin 3 h; read-out: IC50 IL-1β Inhibition. In outline: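 IL-1β release, quantified by HTRF after nigericin activation of the NLRP3 inflammasome, was the read-out. A logistic fit of percent inhibition gave IC50.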
On the technique in general: Time-resolved FRET reads energy transfer from a long-lived donor to a nearby acceptor.
As for `CC(C)N1CCC[C@@H](Nc2nnc(-c3ccc(C(F)(F)F)cc3O)c3cccn23)C1` [Compound I-480], the IC50 lay within 1 to 10 nM. The result for `CN1CCC[C@@H](Nc2nnc(-c3ccc(C(F)(F)F)cc3C#N)c3ccncc23)C1` [Compound I-130] reads 1 to 10 nM; that for `Oc1cc(C2CC2)cc(F)c1-c1nnc(N[C@@H]2CCCOC2)n2cccc12` [Compound I-423], 10 to 100 nM; that for `OCCN1CCC[C@@H](Nc2nnc(-c3ccc(C(F)(F)F)cc3OC(F)F)c3ccncc23)C1` [Compound I-206, 2-[(3R)-3-[[1-[2-(Difluoromethoxy)-4-(trifluoromethyl)phenyl]pyrido[3,4-d]pyridazin-4-yl]amino]-1-piperidyl]ethanol], under 1 nM. The result for `COc1ccc(-c2nnc(N[C@@H]3CCCN(C)C3)c3cnccc23)c(C(F)F)c1` [Compound I-287] reads 1 to 10 nM. The result for `Cc1cc(C#N)ccc1-c1nnc(N[C@@H]2CCCN(C)C2)c2cnccc12` [Compound I-217] reads 10 to 100 nM; that for `FC(F)Oc1cc(C(F)(F)F)ccc1-c1nnc(N[C@@H]2CCOC2)n2cccc12` [Compound I-388], 1 to 10 nM. Consider `CN1CCC[C@@H](Nc2nnc(-c3ccc(-n4nccn4)cc3O)c3ccccc23)C1` [Compound I-10, (R)-2-(4-((1-methylpiperidin-3-yl)amino)phthalazin-1-yl)-5-(2H-1,2,3-triazol-2-yl)phenol], for which the IC50 is 1 to 10 nM. `Cc1cccc(-c2nnc(N[C@@H]3CCCN(C)C3)c3cnccc23)c1O` [Compound I-82]: the IC50 was under 1 nM. Turning to `Oc1cc(Cl)ccc1-c1nnc(N[C@@H]2CCOC2)n2cncc12` [Compound I-561], the IC50 lay in the range of 1 to 10 nM.

Regarding `COc1cc(Br)ccc1-c1nnc(N[C@@H]2CCCNC2)n2nccc12` [Compound I-390], the IC50 was 100 to 300 nM.

In the case of `Oc1cc(C(F)(F)F)ccc1-c1nnc(N[C@H]2CNC[C@@H](F)C2)n2cccc12` [Compound I-575], the IC50 was in the range of 100 to 300 nM. With `OCCN1CCC[C@@H](Nc2nnc(-c3ccc(Cl)cc3O)c3cccn23)C1` [Compound I-369], the IC50 lay within 1 to 10 nM. With `Cc1cc(F)c(-c2nnc(N[C@@H]3CCCN(C4CCOC4)C3)n3cccc23)c(OC(F)F)c1` (stereo partly drawn) [Compound I-488] the figure was 10 to 100 nM; with `CN1CCC[C@@H](Cc2nnc(-c3ccc(C(F)(F)F)cc3O)c3ccccc23)C1` [Compound I-96, (S)-2-(4-((1-methylpiperidin-3-yl)methyl)phthalazin-1-yl)-5-(trifluoromethyl)phenol], over 300 nM. The result for `Oc1cc(C(F)(F)F)ccc1-c1nnc(N[C@H]2C[C@](O)(C(F)(F)F)C2)n2cccc12` [Compound I-405] reads 100 to 300 nM. With `Oc1cc(C(F)(F)F)ccc1-c1nnc(N[C@@H]2CCCN(CCCF)C2)c2cnccc12` [Compound I-294] the figure was under 1 nM. With `CN1CCC[C@@H](Nc2nnc(-c3ccc(Cl)c(N)c3O)c3ccccc23)C1` [Compound I-163, (R)-2-Amino-3-chloro-6-(4-((1-methylpiperidin-3-yl)amino)phthalazin-1-yl)phenol], the IC50 lay in the range of 10 to 100 nM. The result for `CN1CCC[C@@H](Nc2nnc(-c3c(O)cc(Cl)cc3F)c3cccn23)C1` [Compound I-432] reads under 1 nM. The result for `CN1CCC(Nc2nnc(-c3ccc(C(F)(F)F)cc3O)c3ccncc23)CC12CC2` (stereo not drawn) [Compound I-212] reads 10 to 100 nM. The result for `Cc1cc(C(F)(F)F)ccc1-c1nnc(N[C@@H]2CCCN(C)C2)c2cnccc12` [Compound I-290] reads 1 to 10 nM; that for `C[C@]1(O)C[C@@H](Nc2nnc(-c3ccc(OC(F)(F)F)cc3OC(F)F)c3cccn23)C1` [Compound I-522], 10 to 100 nM; that for `CCN1CCC[C@@H](Nc2nnc(-c3ccc(C)cc3O)c3ccnn23)C1` [Compound I-633], 1 to 10 nM. As to `CCN1C[C@H](O)C[C@@H](Nc2nnc(-c3ccc(OC(F)(F)F)cc3O)c3c(F)ccn23)C1` [Compound I-605], the IC50 is 100 to 300 nM. The result for `CN1CCC[C@@H](Nc2nnc(-c3cnc(C#N)cc3O)c3ccccc23)C1` [Compound I-74] reads 10 to 100 nM.

As to `CN1CCC[C@@H](Nc2nnc(-c3ccc(C(F)(F)F)cc3Cl)c3ccncc23)C1` [Compound I-143, (R)-1-(2-Chloro-4-(trifluoromethyl)phenyl)-N-(1-methylpiperidin-3-yl)pyrido[3,4-d]pyridazin-4-amine], the IC50 lay within 1 to 10 nM.

Turning to `Cc1cc2c(-c3ccc(Br)cc3O)nnc(N[C@@H]3CCCN(C)C3)n2n1` [Compound I-334], the IC50 was under 1 nM. For `Oc1cc(C(F)(F)F)cc(F)c1-c1nnc(N[C@@H]2CCCN(C3CCOCC3)C2)n2cccc12` [Compound I-430], the IC50 lay within 1 to 10 nM.

With `CO[C@H]1CCC[C@@H](Nc2nnc(-c3ccc(Cl)cc3O)c3cncn23)C1` [Compound I-581], the IC50 fell in the range of 1 to 10 nM. With `CN1CCC[C@@H](Nc2nnc(-c3ccc(C#N)nc3O)c3ccccc23)C1` [Compound I-80] the figure was 100 to 300 nM.

Regarding `CC(C)N1CCC[C@@H](Nc2nnc(-c3ccc(C(F)(F)F)cc3O)c3ccncc23)C1` [Compound I-295], the IC50 is under 1 nM. The result for `CN1CCC[C@@H](Nc2nnc(-c3c(O)cc(C4CC4)cc3F)c3c(F)ccn23)C1` [Compound I-601] reads under 1 nM.

Take `CCN1CCC[C@@H](Nc2nnc(-c3c(O)cc(C)cc3F)c3cncn23)C1` [Compound I-626]: the IC50 was under 1 nM. As to `C[C@H](O)CNc1nnc(-c2ccc(C(F)(F)F)cc2O)c2cccn12` [Compound I-473], the IC50 lay within 10 to 100 nM. Take `Cc1cc(O)c(-c2nnc(N[C@@H]3CCCN(C)C3)c3ccccc23)cc1C` [Compound I-41]: the IC50 lay within 1 to 10 nM.

Take `Cc1ccc(O)c(-c2nnc(N[C@@H]3CCCN(C)C3)c3ccccc23)c1` [Compound I-17]: the IC50 was 100 to 300 nM. The result for `CN1CCC[C@@H](Nc2nnc(-c3ccc(C4CC4)cc3C(F)(F)F)c3cccn23)C1` [Compound I-534] reads under 1 nM; that for `CN1CCC[C@@H](Nc2nnc(-c3ccc(C4CCOC4)cc3O)c3ccccc23)C1` (stereo partly drawn) [Compound I-61], 1 to 10 nM; that for `CCN1CCC[C@@H](Nc2nnc(-c3ccc(OC(F)(F)F)cc3O)c3cccn23)C1` [Compound I-609], 1 to 10 nM. With `C[C@]1(O)C[C@@H](Nc2nnc(-c3c(O)cc(C4CC4)cc3F)c3cccn23)C1` [Compound I-467] the figure was 1 to 10 nM; with `CN1CCC[C@@H](Nc2nnc(-c3ccc(C4CC4)cc3C(F)F)c3cccn23)C1` [Compound I-446, 1-[4-Cyclopropyl-2-(difluoromethyl)phenyl]-N-[(3R)-1-methyl-3-piperidyl]pyrrolo-[1,2-d][1,2,4]triazin-4-amine], 1 to 10 nM; with `C[C@H](O)CNc1nnc(-c2ccc(C(F)(F)F)cc2O)c2c(F)ccn12` [Compound I-595], 10 to 100 nM.

In the case of `OCCN1CCC(CNc2nnc(-c3ccc(C(F)(F)F)cc3O)c3ccncc23)CC1` [Compound I-303], the IC50 fell in the range of 1 to 10 nM. The result for `CN1CCC[C@@H](Nc2nnc(-c3ccc(F)cc3O)c3ccccc23)C1` [Compound I-16] reads 1 to 10 nM; that for `Oc1cc(C(F)(F)F)cc(F)c1-c1nnc(N[C@@H]2CCCOC2)n2cccc12` [Compound I-395], 10 to 100 nM; that for `CN1CCC[C@H](Cc2nnc(-c3ccc(C(F)(F)F)cc3O)c3ccccc23)C1` [Compound I-97, (R)-2-(4-((1-methylpiperidin-3-yl)methyl)phthalazin-1-yl)-5-(trifluoromethyl)phenol], under 1 nM. With `CCN1CCC[C@@H](Nc2nnc(-c3ccc(Cl)cc3O)c3cncn23)C1` [Compound I-442] the figure was under 1 nM. The result for `Oc1cc(C(F)(F)F)ccc1-c1nnc(NC[C@@H]2CCCN2)c2ccncc12` [Compound I-110] reads under 1 nM; that for `CC(C)(O)CN1CCC[C@@H](Nc2nnc(-c3ccc(Cl)cc3O)c3cccn23)C1` [Compound I-403], 10 to 100 nM. With `Cc1cc(F)c(-c2nnc(N[C@@H]3CCCN(C)C3)n3cccc23)c(OC(F)F)c1` [Compound I-428], the IC50 is 10 to 100 nM. With `CN1CC[C@@H](F)[C@@H](Nc2nnc(-c3ccc(C(F)(F)F)cc3O)c3ccncc23)C1` [Compound I-315] the figure was under 1 nM.

Take `CC1CCCc2c(N[C@@H]3CCCNC3)nnc(-c3ccc(C(F)(F)F)cc3O)c21` (stereo partly drawn) [Compound I-23]: the IC50 was in the range of 10 to 100 nM. `Cc1cc(OC(F)F)c(-c2nnc(N[C@@H]3CCCN(C)C3)c3cnccc23)cc1F` [Compound I-178]: the IC50 is 1 to 10 nM. With `Cc1cc(O)c(-c2nnc(N[C@@H]3CCCN(C)C3)c3cnccc23)c(O)c1` [Compound I-268] the figure was under 1 nM.
